Tested on: pseudovirus of SARS-CoV-2 original strain (SARS-CoV-2 WT)
Conditions: for IC50: read-out: IC50, inhibitory effect on pseudovirus, Hela hACE2 cells

Row | Compound | Increase multiple (fold increase in the inhibitory effect compared to the polypeptide P3) | IC50 [nM]
1 | CC[C@H](C)[C@H](N)C(=O)N[C@@H](CO)C(=O)NCC(=O)N[C@H](C(=O)N[C@@H](CC(N)=O)C(=O)N[C@@H](C)C(=O)N[C@@H](CO)C(=O)N[C@H](C(=O)N[C@H](C(=O)N[C@@H](CC(N)=O)C(=O)N[C@H](C(=O)N[C@@H](CCCCN)C(=O)N[C@@H](CCC(=O)O)C(=O)N[C@@H](CCC(=O)O)C(=O)N[C@H](C(=O)N[C@@H](CC(=O)O)C(=O)N[C@@H](CCCNC(=N)N)C(=O)N[C@@H](CC(C)C)C(=O)N[C@@H](CC(N)=O)C(=O)N[C@@H](CCC(=O)O)C(=O)N[C@H](C(=O)N[C@@H](C)C(=O)N[C@@H](CCCCN)C(=O)N[C@@H](CC(N)=O)C(=O)N[C@@H](CC(C)C)C(=O)N[C@@H](CC(N)=O)C(=O)N[C@@H](CCC(=O)O)C(=O)N[C@@H](CO)C(=O)N[C@@H](CC(C)C)C(=O)N[C@H](C(=O)N[C@@H](CC(=O)O)C(=O)N[C@@H](CC(C)C)C(=O)N[C@@H](CCC(N)=O)C(=O)N[C@@H](CCC(=O)O)C(=O)N[C@@H](CC(C)C)C(=O)O)[C@@H](C)CC)C(C)C)[C@@H](C)CC)[C@@H](C)CC)C(C)C)C(C)C)[C@@H](C)CC [Polypeptide P3-4] | 3.3 | 240
2 | CC[C@H](C)[C@H](NC(=O)CNC(=O)[C@H](CO)NC(=O)[C@@H](NC(=O)[C@H](CC(=O)O)NC(=O)CNC(=O)[C@H](Cc1ccccc1)NC(=O)[C@H](CCCCN)NC(=O)[C@@H](N)C(C)C)[C@@H](C)CC)C(=O)N[C@@H](CC(N)=O)C(=O)N[C@@H](C)C(=O)N[C@@H](CO)C(=O)N[C@H](C(=O)N[C@H](C(=O)N[C@@H](CC(N)=O)C(=O)N[C@H](C(=O)N[C@@H](CCCCN)C(=O)N[C@@H](CCC(=O)O)C(=O)N[C@@H](CCC(=O)O)C(=O)N[C@H](C(=O)N[C@@H](CC(=O)O)C(=O)N[C@@H](CCCNC(=N)N)C(=O)N[C@@H](CC(C)C)C(=O)N[C@@H](Cc1ccc(O)cc1)C(=O)N[C@@H](CCC(=O)O)C(=O)N[C@H](C(=O)N[C@H](C(=O)N[C@@H](CCCCN)C(=O)N[C@@H](CC(N)=O)C(=O)N[C@@H](CC(C)C)C(=O)N[C@@H](CC(N)=O)C(=O)N[C@@H](CCC(=O)O)C(=O)N[C@@H](CO)C(=O)N[C@@H](CC(C)C)C(=O)N[C@H](C(=O)N[C@@H](CC(=O)O)C(=O)N[C@@H](CC(C)C)C(=O)N[C@@H](CCC(N)=O)C(=O)N[C@@H](CCC(=O)O)C(=O)N[C@@H](CC(C)C)C(=O)O)[C@@H](C)CC)C(C)C)C(C)C)[C@@H](C)CC)[C@@H](C)CC)C(C)C)C(C)C [Polypeptide P3-3] | 3.4 | 230
3 | CC[C@H](C)[C@H](N)C(=O)N[C@@H](CO)C(=O)NCC(=O)N[C@H](C(=O)N[C@@H](CC(N)=O)C(=O)N[C@@H](C)C(=O)N[C@@H](CO)C(=O)N[C@H](C(=O)N[C@H](C(=O)N[C@@H](CC(N)=O)C(=O)N[C@H](C(=O)N[C@@H](CCC(N)=O)C(=O)N[C@@H](CCCCN)C(=O)N[C@@H](CCC(=O)O)C(=O)N[C@H](C(=O)N[C@@H](CC(=O)O)C(=O)N[C@@H](CCCNC(=N)N)C(=O)N[C@@H](CC(C)C)C(=O)N[C@@H](CC(N)=O)C(=O)N[C@@H](CCC(=O)O)C(=O)N[C@H](C(=O)N[C@@H](C)C(=O)N[C@@H](CCCCN)C(=O)N[C@@H](CCC(=O)O)C(=O)N[C@@H](CC(C)C)C(=O)N[C@@H](CC(N)=O)C(=O)N[C@@H](CCC(=O)O)C(=O)N[C@@H](CO)C(=O)N[C@@H](CC(C)C)C(=O)N[C@H](C(=O)N[C@@H](CC(=O)O)C(=O)N[C@@H](CC(C)C)C(=O)N[C@@H](CCC(N)=O)C(=O)N[C@@H](CCC(=O)O)C(=O)N[C@@H](CC(C)C)C(=O)O)[C@@H](C)CC)C(C)C)[C@@H](C)CC)[C@@H](C)CC)C(C)C)C(C)C)[C@@H](C)CC [Polypeptide P3-5] | 0.5 | 1590
